One assay has as its target human cathepsin K (UniProt P43236). Kind of assay: Cathepsin K Assay (hrbCat K). Type of assay: biochemical. As to conditions: Z-Leu-Arg-AMC substrate, pH 5.5, 15 min preincubation; read-out: hrbCat K (IP (nM)). The gist of the method:
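Human cathepsin K (0.4 nM) was preincubated 15 min at room temperature with compound in 50 mM MES pH 5.5, 2.5 mM EDTA, 2.5 mM DTT and 10% DMSO. Inhibition was fitted to a dose-response model.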

The target in another assay is T1, human cathepsin F (Homo sapiens, UniProt Q9UBX1).
T1 sequence (Q9UBX1 271-484): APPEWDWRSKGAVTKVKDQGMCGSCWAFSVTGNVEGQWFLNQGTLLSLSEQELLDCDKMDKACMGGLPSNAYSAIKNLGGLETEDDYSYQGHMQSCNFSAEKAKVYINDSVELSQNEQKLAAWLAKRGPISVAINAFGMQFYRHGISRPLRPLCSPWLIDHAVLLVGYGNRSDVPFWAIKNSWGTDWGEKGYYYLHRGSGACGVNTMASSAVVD
Kind of assay: Cathepsin F assay (hCat F). Type of assay: biochemical. As to conditions: Z-Phe-Arg-AMC substrate, pH 5.5, 15 min preincubation; read-out: hCat F (IP (nM)). The gist of the method:
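AMC release from Z-Phe-Arg-AMC, added at 8 μM, was monitored fluorometrically (360/460 nm) for 20 min after 10 nM enzyme and compound had been preincubated 15 min at room temperature. Buffer: MES 50 mM pH 5.5, EDTA and DTT 2.5 mM each, 10% DMSO. Compound DMSO dilutions spanned 500–0.025 μM (3-fold). Dose-response fitting gave % inhibition.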

Data on 22 compounds can be found in patent US9573913B2, “Cathepsin cysteine protease inhibitors” (Merck Sharp & Dohme Corp., priority 2013, dated 2017).

Bounds are passed on as bounds.

For the compound `N#CC1(NC(=O)[C@@H]2CCCC[C@H]2c2nc(-c3ccc(F)cc3)oc2-c2ccc(N3CCS(=O)(=O)CC3)cc2)CC1` [Example 10, (1R,2R)-N-(1-cyanocyclopropyl)-2-(5-(4-(1,1-dioxidothiomorpholino)phenyl)-2-(4-fluorophenyl)oxazol-4-yl)cyclohexanecarboxamide], the results for the IC50 at human cathepsin K and on human cathepsin F were 2.5 nM and 1110 nM, respectively.

In the case of `N#CC1(NC(=O)[C@@H]2CCCC[C@H]2c2nc(C3CCOCC3)sc2-c2ccc(N3CCS(=O)(=O)CC3)cc2)CC1` [Example 11, (1R,2R)-N-(1-Cyanocyclopropyl)-2-(5-(4-(1,1-dioxidothiomorpholino)phenyl)-2-(tetrahydro-2H-pyran-4-yl)thiazol-4-yl)cyclohexanecarboxamide], the IC50 on human cathepsin K was 3 nM; on human cathepsin F, no less than 10000 nM.

As for `Cc1nc([C@@H]2CCCC[C@H]2C(=O)NCC#N)c(-c2ccc(C(=O)N3CCOCC3)cc2)s1` [Example 12, (1R,2R)-N-(cyanomethyl)-2-(2-methyl-5-(4-(morpholine-4-carbonyl)phenyl)thiazol-4-yl)cyclohexanecarboxamide], the values for the IC50 on human cathepsin K and at human cathepsin F were 17 nM and 5170 nM, respectively.

`CC(C)(C)c1nc([C@@H]2CC[C@H](F)C[C@H]2C(=O)NC2(C#N)CC2)c(-c2ccc(N3CCS(=N)(=O)CC3)cc2)o1` [Example 13, (1R,2R,5S)-2-(2-(tert-Butyl)-5-(4-(1-imino-1-oxidothiomorpholino)phenyl)oxazol-4-yl)-N-(1-cyanocyclopropyl)-5-fluorocyclohexanecarboxamide]: the IC50 on human cathepsin K is 6 nM; at human cathepsin F, no less than 10000 nM.

In the case of `CN=S1(=O)CCN(c2ccc(-c3oc(C(C)(C)C)nc3[C@@H]3CC[C@H](F)C[C@H]3C(=O)NC3(C#N)CC3)cc2)CC1` [Example 14, (1R,2R,5S)-2-(2-(tert-Butyl)-5-(4-(1-(methylimino)-1-oxidothiomorpholino)phenyl)oxazol-4-yl)-N-(1-cyanocyclopropyl)-5-fluorocyclohexanecarboxamide], the IC50 on human cathepsin K was 5.2 nM; on human cathepsin F it was no less than 10000 nM.

Take `CC(C)OC(=O)N1CC(c2ccc(-c3sc(-c4ccc(F)cc4)nc3[C@@H]3CCCC[C@H]3C(=O)NC3(C#N)CC3)cc2)C1` [Example 15, Isopropyl 3-(4-(4-((1R,2R)-2-((1-cyanocyclopropyl)carbamoyl)cyclohexyl)-2-(4-fluorophenyl)thiazol-5-yl)phenyl)azetidine-1-carboxylate]: the IC50 on human cathepsin K turned out to be 2.4 nM; on human cathepsin F, 124 nM.

On to `N#CC1(NC(=O)[C@@H]2CCCC[C@H]2c2nc(Oc3ccccc3)sc2-c2ccc(N3CCS(=O)(=O)CC3)cc2)CC1` [Example 16, (1R,2R)-N-(1-Cyanocyclopropyl)-2-(5-(4-(1,1-dioxidothiomorpholino)phenyl)-2-phenoxythiazol-4-yl)cyclohexanecarboxamide], for which the IC50 is 2.5 nM at human cathepsin K and 931 nM at human cathepsin F.

Turning to `Cc1nc([C@@H]2CCCC[C@H]2C(=O)NCC#N)c(-c2ccc(N3CCS(=O)(=O)CC3)cc2)s1` [Example 17, (1R,2R)-N-(cyanomethyl)-2-(5-(4-(1,1-dioxidothiomorpho-lino)phenyl)-2-methylthiazol-4-yl)cyclohexane-carboxamide], the IC50 at human cathepsin K is 2 nM; on human cathepsin F, 1140 nM.

As for `N#CCNC(=O)[C@@H]1CCCC[C@H]1c1nc(C2CC2)sc1-c1ccc(N2CCS(=O)(=O)CC2)cc1` [Example 18, (1R,2R)-N-(cyanomethyl)-2-(2-cyclopropyl-5-(4-(1,1-dioxidothiomorpho-lino)phenyl)thiazol-4-yl)cyclohexane-carboxamide], the values for the IC50 on human cathepsin K and on human cathepsin F were 1.2 nM and 564 nM, respectively.

With `CC(C)(C)c1nc([C@@H]2CCCC[C@H]2C(=O)NCC#N)c(-c2ccc(N3CCS(=O)(=O)CC3)cc2)s1` [Example 19, (1R,2R)-2-(2-(tert-butyl)-5-(4-(1,1-dioxidothiomorpho-lino)phenyl)thiazol-4-yl)-N-(cyanomethyl)cyclo-hexanecarboxamide], the IC50 at human cathepsin K was determined as 0.7 nM; at human cathepsin F, 851 nM.

For the compound `CC(C)(C)c1nc([C@@H]2CCCC[C@H]2C(=O)NC2(C#N)CC2)c(-c2ccc(N3CCS(=O)(=O)CC3)cc2)s1` [Example 20, (1R,2R)-2-(2-(tert-butyl)-5-(4-(1,1-dioxidothiomorpho-lino)phenyl)thiazol-4-yl)-N-(1-cyanocyclopropyl) cyclohexanecarbox-amide], the IC50 at human cathepsin K is 2.7 nM; at human cathepsin F, 8630 nM.

Consider `N#CC1(NC(=O)[C@@H]2CC(F)(F)CC[C@H]2c2nc(CC(F)(F)F)sc2-c2ccc(N3CCS(=O)(=O)CC3)cc2)CC1` [Example 21, (1R,2R)-N-(1-cyanocyclopropyl)-2-(5-(4-(1,1-dioxidothiomorpho-lino)phenyl)-2-(2,2,2-trifluoroethyl)thia-zol-4-yl)-5,5-difluorocyclohexane-carboxamide], for which the IC50 amounted to 1.6 nM at human cathepsin K and 314 nM on human cathepsin F.

Regarding `N#CC1(NC(=O)[C@@H]2CCCC[C@H]2c2nc(CC(F)(F)F)sc2-c2ccc(N3CCS(=O)(=O)CC3)cc2)CC1` [Example 22, (1R,2R)-N-(1-cyanocyclopropyl)-2-(5-(4-(1,1-dioxidothiomorpho-lino)phenyl)-2-(2,2,2-trifluoroethyl)thia-zol-4-yl)cyclohexane-carboxamide], the IC50 worked out at 6.6 nM on human cathepsin K and 8520 nM on human cathepsin F.

With `N#CC1(NC(=O)[C@@H]2CC(F)(F)CC[C@H]2c2nc(CCC(F)(F)F)sc2-c2ccc(N3CCS(=O)(=O)CC3)cc2)CC1` [Example 23, (1R,2R)-N-(1-cyanocyclopropyl)-2-(5-(4-(1,1-dioxidothiomorpho-lino)phenyl)-2-(3,3,3-trifluoropropyl)thia-zol-4-yl)-5,5-difluorocyclohexane-carboxamide], the results for the IC50 on human cathepsin K and at human cathepsin F were 1.1 nM and 223 nM, respectively.

`N#CC1(NC(=O)[C@@H]2CCCC[C@H]2c2nc(CCC(F)(F)F)sc2-c2ccc(N3CCS(=O)(=O)CC3)cc2)CC1` [Example 24, (1R,2R)-N-(1-cyanocyclopropyl)-2-(5-(4-(1,1-dioxidothiomorpho-lino)phenyl)-2-(3,3,3-trifluoropropyl)thia-zol-4-yl)cyclohexane-carboxamide]: the figures for the IC50 on human cathepsin K and at human cathepsin F were 5.6 nM and 2230 nM, respectively.

On to `CC(C)(C)c1nc([C@@H]2CC[C@H](F)C[C@H]2C(=O)NC2(C#N)CC2)c(-c2ccc(N3CCS(=O)(=O)CC3)cc2)s1` [Example 25, (1R,2R,5S)-2-(2-(tert-butyl)-5-(4-(1,1-dioxidothiomorpho-lino)phenyl)thiazol-4-yl)-N-(1-cyanocyclopropyl)-5-fluorocyclohexane-carboxamide], for which the IC50 at human cathepsin K was 3.3 nM; on human cathepsin F it was 9260 nM.

As for `N#CC1(NC(=O)[C@@H]2CC(F)(F)CC[C@H]2c2nc(-c3ccc(F)cc3)sc2-c2ccc(N3CCS(=O)(=O)CC3)cc2)CC1` [Example 26, (1R,2R)-N-(1-cyanocyclopropyl)-2-(5-(4-(1,1-dioxidothiomorpho-lino)phenyl)-2-(4-fluorophenyl)thiazol-4-yl)-5,5-difluorocyclohexane-carboxamide], the IC50 at human cathepsin K is 0.3 nM; at human cathepsin F, 35 nM.

In the case of `N#CC1(NC(=O)[C@@H]2CCCC[C@H]2c2nc(-c3ccc(F)cc3)sc2-c2ccc(N3CCS(=O)(=O)CC3)cc2)CC1` [Example 27, (1R,2R)-N-(1-cyanocyclopropyl)-2-(5-(4-(1,1-dioxidothiomorpho-lino)phenyl)-2-(4-fluorophenyl)thiazol-4-yl)cyclohexane-carboxamide], the IC50 at human cathepsin K was 0.6 nM; at human cathepsin F it was 1000 nM.

Turning to `N#CC1(NC(=O)[C@@H]2CC(F)(F)CC[C@H]2c2nc(-c3ccc(F)cc3)sc2-c2ccc(C(=O)N3CCOCC3)cc2)CC1` [Example 28, (1R,2R)-N-(1-cyanocyclopropyl)-5,5-difluoro-2-(2-(4-fluorophenyl)-5-(4-(morpholine-4-carbonyl)phenyl)thi-azol-4-yl)cyclohexane-carboxamide], the IC50 at human cathepsin K was 2.3 nM; on human cathepsin F, 63 nM.

`CS(=O)(=O)N1CCN(C(=O)c2ccc(-c3sc(-c4ccc(F)cc4)nc3[C@@H]3CCC(F)(F)C[C@H]3C(=O)NC3(C#N)CC3)cc2)CC1` [Example 29, (1R,2R)-N-(1-cyanocyclopropyl)-5,5-difluoro-2-(2-(4-fluorophenyl)-5-(4-(4-(methylsulfonyl)piperazine-1-carbonyl)phenyl)thi-azol-4-yl)cyclohexane-carboxamide]: the IC50 on human cathepsin K is 1.9 nM; on human cathepsin F it was 57 nM.

Turning to `N#CC1(NC(=O)[C@@H]2CC(F)(F)CC[C@H]2c2nc(-c3ccc(F)cc3)sc2-c2ccc(C(=O)N3CCNC(=O)C3)cc2)CC1` [Example 30, (1R,2R)-N-(1-cyanocyclopropyl)-5,5-difluoro-2-(2-(4-fluorophenyl)-5-(4-(3-oxopiperazine-1-carbonyl)phenyl)thi-azol-4-yl)cyclohexane-carboxamide], the IC50 on human cathepsin K is 2.2 nM; at human cathepsin F, 51 nM.

Take `N#CC1(NC(=O)[C@@H]2CC(F)(F)CC[C@H]2c2nc(-c3ccc(F)cc3)sc2-c2ccc(C(=O)N3CCC(O)CC3)cc2)CC1` [Example 31, (1R,2R)-N-(1-cyanocyclopropyl)-5,5-difluoro-2-(2-(4-fluorophenyl)-5-(4-(4-hydroxypiperidine-1-carbonyl)phenyl)thi-azol-4-yl)cyclohexane-carboxamide]: the IC50 was found to be 3.4 nM on human cathepsin K and 73 nM at human cathepsin F.
